Results on 30 compounds are retold here after patent US20130324522A1, “INSECT ODORANT RECEPTOR ANTAGONISTS” (THE ROCKEFELLER UNIVERSITY, priority 2010, published 2013).

In the experiment the target is OR10/OR7 (Anopheles gambiae, UniProt B5U0U7+Q7QCC7). Briefly: Ca2+-imaging of stable HEK293T cell line OR10/OR7. In kind it is cell-based. The note with it: for inhibition at 4 µM: HEK-293T, compound applied at 4 μM, read-out: Percent Inhibition OR10 OR7; for IC50: Table B, read-out: IC50 OR10. In outline:
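Stable HEK293T line co-expressing OR10/OR7, plated 2 days on poly-D-lysine, loaded with Ca-4 dye 1.5 hr at room temperature. Compounds premixed into odorant in HBSS and applied on FDSS6000. Ca2+ rise followed by fluorescence at 525 nm (excitation 485 nm).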

Structures are written as SMILES.

OR10/OR7, sequence (Q7QCC7 whole entry): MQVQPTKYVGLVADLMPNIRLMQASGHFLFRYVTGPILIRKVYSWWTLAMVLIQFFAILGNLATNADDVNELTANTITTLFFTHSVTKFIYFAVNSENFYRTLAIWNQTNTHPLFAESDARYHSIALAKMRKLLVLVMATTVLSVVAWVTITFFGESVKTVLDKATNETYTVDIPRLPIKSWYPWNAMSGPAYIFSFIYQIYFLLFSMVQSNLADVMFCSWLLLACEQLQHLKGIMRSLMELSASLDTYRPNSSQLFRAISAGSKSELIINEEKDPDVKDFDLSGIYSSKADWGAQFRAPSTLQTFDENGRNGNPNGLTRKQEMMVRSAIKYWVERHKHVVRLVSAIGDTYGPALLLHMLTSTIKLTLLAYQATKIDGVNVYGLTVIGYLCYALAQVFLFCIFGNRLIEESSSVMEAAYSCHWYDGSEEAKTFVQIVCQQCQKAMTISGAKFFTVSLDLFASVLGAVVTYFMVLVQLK
OR10/OR7, sequence (B5U0U7 entry or part of it): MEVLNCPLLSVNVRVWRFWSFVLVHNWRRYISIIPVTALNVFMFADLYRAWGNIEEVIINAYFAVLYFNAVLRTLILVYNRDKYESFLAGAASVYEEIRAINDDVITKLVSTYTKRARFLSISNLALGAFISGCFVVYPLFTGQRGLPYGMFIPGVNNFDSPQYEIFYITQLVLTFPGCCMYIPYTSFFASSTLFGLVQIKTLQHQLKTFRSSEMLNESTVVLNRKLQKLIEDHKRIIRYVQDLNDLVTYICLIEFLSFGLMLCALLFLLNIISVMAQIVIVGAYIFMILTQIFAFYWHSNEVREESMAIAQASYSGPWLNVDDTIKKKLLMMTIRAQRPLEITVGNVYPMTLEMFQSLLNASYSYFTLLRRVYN

What is called inhibition is the change of the read-out against control, counted positive when it falls. With `COCCN(Cc1cc(Cl)ccc1OS(=O)(=O)c1ccc(F)cc1)C(=O)C1CCC1` [RU-0035287], the inhibition at 4 µM is under 25%.

What is called IC50 is the point on the concentration scale where inhibition reaches its midpoint. For the compound `CCN(CC)C(=O)Oc1ccc2c(ccn2Cc2cccc(C)c2)c1NC(=O)[C@H](C)OC(C)=O` [RU-0075468], the inhibition at 4 µM was 26 to 50% and the IC50 is under 100 nM.

For the compound `CN(C)c1nc(N(C)C)nc(N(C)C)n1` [RU-0000619], the inhibition at 4 µM was under 25%.

With `COc1nc(NC(C)C)nc(NC(C)C)n1` [RU-0001534], the inhibition at 4 µM is under 25%.

In the case of `COC(=O)C(Cc1ccccc1)NC(=O)C1CC1(c1ccccc1)c1ccccc1` (stereo not drawn) [RU-0028029], the inhibition at 4 µM lay in the range of 26 to 50%.

Regarding `CCOCCCN(CC(=O)N(Cc1ccc2c(c1)OCO2)Cc1sccc1C)C(=O)NC(C)(C)C` [RU-0052340], the inhibition at 4 µM lay in the range of 51 to 74% and the IC50 is under 100 nM.

`CCCCc1nc(CN2CCc3c([nH]c4ccccc34)C2c2cccc(OC)c2OC)c[nH]1` (stereo not drawn) [RU-0031879]: the inhibition at 4 µM was under 25%.

With `COc1ccc(C(=O)c2ccccc2)c(O)c1O` [RU-0001617], the inhibition at 4 µM fell in the range of 51 to 74% and the IC50 is under 100 nM.

Consider `COCCCN(CC(=O)N1CCc2sccc2C1c1ccc(OC)cc1)C(=O)C(C)(C)CCl` (stereo not drawn) [RU-0069950], for which the inhibition at 4 µM was over 75% and the IC50 is under 100 nM.

Turning to `COCCCN(CC(=O)N1CCc2sccc2C1COc1cccc(OC)c1)C(=O)c1ccccc1OC` (stereo not drawn) [RU-0036294], the inhibition at 4 µM fell in the range of 51 to 74% and the IC50 was over 1000 nM.

Take `CCOC(=O)C(c1cccc(OC)c1)C1C=CC(NC(=O)c2cccs2)C1` (stereo not drawn) [RU-0074560]: the inhibition at 4 µM is under 25%.

On to `COc1cc(OC)cc(C2NC(=O)N(C)C3=C2C(=O)N(C2CCCCC2)C3)c1` (stereo not drawn) [RU-0047750], for which the inhibition at 4 µM was over 75% and the 50% inhibitory concentration (IC50) is under 100 nM.

Turning to `Cc1ccc(CN(CCc2ccccc2)C(=O)CN(C(=O)NC(C)(C)C)C(C)C)o1` [RU-0072008], the inhibition at 4 µM was over 75% and the IC50 is under 100 nM.

Consider `CCOc1ccccc1C(=O)NNC(=O)COc1cc(C)cc(C)c1` [RU-0023245], for which the inhibition at 4 µM lay in the range of 26 to 50% and the IC50 is over 1000 nM.

With `Cc1ccc(-n2nc(C)c(CCC(=O)N3CCc4ccccc4C3)c2C)cc1Cl` [RU-0026074], the inhibition at 4 µM was 26 to 50%.

Take `COc1ccc(N2CCN(C(=O)C3CC=CCC3C(=O)NCCCCc3ccccc3)CC2)cc1` (stereo not drawn) [RU-0026167]: the inhibition at 4 µM was in the range of 26 to 50%.

For `COCCNC(=O)c1ccc(CSc2nnc(-c3ccc(C)cc3)n2-c2ccccc2F)cc1` [RU-0051652], the inhibition at 4 µM was 26 to 50%.

Regarding `COc1nc(OCC#N)nc(N2CCCCC2)n1` [RU-0006256], the inhibition at 4 µM lay in the range of 51 to 74% and the IC50 is over 1000 nM.

For `CN(Cc1ccccc1)C(=O)CCC1CCN(C(=O)CCOc2ccccc2)CC1` [RU-0028727], the inhibition at 4 µM fell in the range of 51 to 74% and the IC50 was over 1000 nM.

`CCOC(=O)C(c1ccc(OC)c(OC)c1)C1C=CC(NC(=O)c2ccc3c(c2)OCO3)C1` (stereo not drawn) [RU-0049030]: the inhibition at 4 µM was in the range of 26 to 50%.

Consider `Cc1cc(C)c2c(c1C(=O)N1CCC3(CC1)C(=O)NCN3c1ccccc1)CC(C)(C)C2=O` [RU-0025771], for which the inhibition at 4 µM lay within 26 to 50%.

As for `COCCCN(CC(=O)N1CCc2sccc2C1COc1cccc(OC)c1)C(=O)Cc1ccccc1` (stereo not drawn) [RU-0036264], the inhibition at 4 µM was under 25%.

Turning to `CC(NCc1ccccc1)c1nc2ccccc2c(=O)n1-c1ccc(Cl)cc1` (stereo not drawn) [RU-0072535], the inhibition at 4 µM was under 25%.

In the case of `O=C1CN(S(=O)(=O)c2c(F)cc(F)cc2F)CC2c3cccc(F)c3CCN12` (stereo not drawn) [RU-0076832], the inhibition at 4 µM lay within 26 to 50%.

Turning to `COc1ccccc1N1CCN(C(=O)c2cc3n(n2)CCN(Cc2c(F)cccc2Cl)C3=O)CC1` [RU-0043595], the inhibition at 4 µM was under 25%.

Regarding `Cc1ccc(CN(Cc2ccc(F)cc2)C(=O)CN(C(=O)NC(C)(C)C)C2CC2)s1` [RU-0052360], the inhibition at 4 µM was over 75% and the 50% inhibitory concentration (IC50) is over 1000 nM.

On to `CC(NC(=O)c1cc2n(n1)CCN(Cc1c(Cl)cccc1Cl)C2=O)c1ccccc1` (stereo not drawn) [RU-0045115], for which the inhibition at 4 µM is under 25%.

Regarding `C=C[C@@](C)(O)CCC1C(=C)CCC2[C@@](C)(CO)CCC[C@]12C` (stereo partly drawn) [RU-0001327], the inhibition at 4 µM lay within 51 to 74% and the IC50 was over 1000 nM.

Consider `COc1ccc(-c2nnc(SCc3ccc(C#N)cc3)n2-c2ccc(C)cc2)cc1` [RU-0046426], for which the inhibition at 4 µM lay in the range of 26 to 50%.

Take `COc1ccc(N2CCN(C(=O)C3CC=CCC3C(=O)NC(c3ccccc3)c3ccccn3)CC2)cc1` (stereo not drawn) [RU-0026507]: the inhibition at 4 µM was under 25%.
